Laboratory results published in PubChem BioAssay AID248 (DTP/NCI, 2004).
Inconclusive results and toxic doses are left out. Cut-off read from the data, not from the text of the source: active = T/C of 150% or more; inactive = T/C below 125%.

Tested on: L1210 leukemia ip in BDF1 mice, survival T/C
Assay: NCI In Vivo Anticancer Drug Screen. Data for tumor model L1210 Leukemia (intraperitoneal) in B6D2F1 (BDF1) mice
Settings: endpoint: mean survival time, higher = longer survival
Outline: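 Ratio derived from survival: compound-dosed mice over vehicle-dosed mice, all bearing a transplantable tumor.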

[1] = dose: 100.0 mg/kg/injection, schedule: Q01DX001 (ip), vehicle: saline
[2] = dose: 100.0 mg/kg/injection, schedule: Q01DX009 (ip), vehicle: saline with Tween-80
[3] = dose: 100.0 mg/kg/injection, schedule: Q04DX002 (ip), vehicle: saline with Tween-80
[4] = dose: 200.0 mg/kg/injection, schedule: Q01DX001 (ip), vehicle: saline
[5] = dose: 200.0 mg/kg/injection, schedule: Q01DX009 (ip), vehicle: saline with Tween-80
[6] = dose: 200.0 mg/kg/injection, schedule: Q04DX002 (ip), vehicle: saline with Tween-80
[7] = dose: 400.0 mg/kg/injection, schedule: Q01DX001 (ip), vehicle: saline
[8] = dose: 400.0 mg/kg/injection, schedule: Q01DX009 (ip), vehicle: saline with Tween-80
[9] = dose: 100.0 mg/kg/injection, schedule: Q04DX003 (ip), vehicle: Klucel (hydroxypropylcellulose) (HPC)
[10] = dose: 200.0 mg/kg/injection, schedule: Q04DX003 (ip), vehicle: Klucel (hydroxypropylcellulose) (HPC)
[11] = dose: 400.0 mg/kg/injection, schedule: Q04DX003 (ip), vehicle: Klucel (hydroxypropylcellulose) (HPC)
[12] = dose: 100.0 mg/kg/injection, schedule: Q01DX009 (ip), vehicle: Klucel (hydroxypropylcellulose) (HPC)
[13] = dose: 200.0 mg/kg/injection, schedule: Q01DX009 (ip), vehicle: Klucel (hydroxypropylcellulose) (HPC)
[14] = dose: 400.0 mg/kg/injection, schedule: Q01DX009 (ip), vehicle: Klucel (hydroxypropylcellulose) (HPC)
[15] = dose: 12.5 mg/kg/injection, schedule: Q01DX009 (ip), vehicle: Klucel (hydroxypropylcellulose) (HPC)
[16] = dose: 25.0 mg/kg/injection, schedule: Q01DX009 (ip), vehicle: Klucel (hydroxypropylcellulose) (HPC)

Measured: T/C

COc1ccccc1/C=C/C(=O)N1CCC2(CC1)C(=O)N(C)CN2c1ccccc1
inactive: dose: 75.0 mg/kg/injection, schedule: Q04DX003 (ip), vehicle: Klucel (hydroxypropylcellulose) (HPC) 96 % of control | dose: 150.0 mg/kg/injection, schedule: Q04DX003 (ip), vehicle: Klucel (hydroxypropylcellulose) (HPC) 86 % of control | dose: 300.0 mg/kg/injection, schedule: Q04DX003 (ip), vehicle: Klucel (hydroxypropylcellulose) (HPC) 91 % of control

ON=C1CCCCC1
inactive: dose: 75.0 mg/kg/injection, schedule: Q01DX009 (ip), vehicle: other 95 % of control | [1] 88 % of control | [2] 96 % of control | dose: 100.0 mg/kg/injection, schedule: Q04DX002 (ip), vehicle: other 111 % of control | [3] 97 % of control | dose: 150.0 mg/kg/injection, schedule: Q01DX009 (ip), vehicle: other 105 % of control | [4] 96 % of control | [5] 94 % of control | dose: 200.0 mg/kg/injection, schedule: Q04DX002 (ip), vehicle: other 97 % of control | [6] 94 % of control | dose: 300.0 mg/kg/injection, schedule: Q01DX009 (ip), vehicle: other 94 % of control | [7] 93 % of control | [8] 91 % of control | dose: 400.0 mg/kg/injection, schedule: Q04DX002 (ip), vehicle: other 97 % of control | dose: 400.0 mg/kg/injection, schedule: Q04DX002 (ip), vehicle: saline with Tween-80 102 % of control

O=C1c2cc(Br)cc(Br)c2NCCC1(Br)Br
inactive: dose: 100.0 mg/kg/injection, schedule: Q01DX001 (ip), vehicle: carboxymethylcellulose (CMC) 91 % of control | dose: 200.0 mg/kg/injection, schedule: Q01DX001 (ip), vehicle: carboxymethylcellulose (CMC) 91 % of control | dose: 400.0 mg/kg/injection, schedule: Q01DX001 (ip), vehicle: carboxymethylcellulose (CMC) 94 % of control

CC(C)=CCC(=O)Nc1ccc(Cl)nn1
inactive: [9] 86 % of control | [10] 91 % of control | [11] 100 % of control

Cc1cccc(C)c1NC(=O)COc1ccc(Cl)cc1
inactive: [12] 105 % of control | [9] 95 % of control | [13] 86 % of control | [10] 93 % of control | [14] 97 % of control | [11] 91 % of control

O=C(Nc1ccc(Cl)c(Cl)c1)n1ncc2ccc([N+](=O)[O-])cc21
inactive: [1] 100 % of control | [4] 96 % of control | [7] 100 % of control

CCCC1(c2ccccc2)C(C#N)C(=O)NC(=O)C1C#N (stereo not given)
inactive: [1] 101 % of control | [4] 97 % of control

N#CCN1C(=O)c2ccccc2C1=O
inactive: [15] 96 % of control | dose: 12.5 mg/kg/injection, schedule: Q04DX003 (ip), vehicle: Klucel (hydroxypropylcellulose) (HPC) 100 % of control | [16] 101 % of control | dose: 25.0 mg/kg/injection, schedule: Q04DX003 (ip), vehicle: Klucel (hydroxypropylcellulose) (HPC) 98 % of control | dose: 50.0 mg/kg/injection, schedule: Q04DX003 (ip), vehicle: Klucel (hydroxypropylcellulose) (HPC) 100 % of control | dose: 75.0 mg/kg/injection, schedule: Q01DX001 (ip), vehicle: other 107 % of control

CC(C)(C)C1CSC(c2ccccc2)SC1 (stereo not given)
inactive: dose: 12.5 mg/kg/injection, schedule: Q04DX002 (ip), vehicle: Klucel (hydroxypropylcellulose) (HPC) 98 % of control | dose: 25.0 mg/kg/injection, schedule: Q04DX002 (ip), vehicle: Klucel (hydroxypropylcellulose) (HPC) 92 % of control | dose: 50.0 mg/kg/injection, schedule: Q04DX002 (ip), vehicle: Klucel (hydroxypropylcellulose) (HPC) 98 % of control

CCCCCCCCCCCCCCS
inactive: dose: 200.0 mg/kg/injection, schedule: Q01DX Z (ip), vehicle: methylcellulose (MC) 116 % of control | dose: 225.0 mg/kg/injection, schedule: Q01DX Z (ip), vehicle: methylcellulose (MC) 108 % of control | dose: 450.0 mg/kg/injection, schedule: Q01DX Z (ip), vehicle: methylcellulose (MC) 104 % of control | dose: 675.0 mg/kg/injection, schedule: Q01DX Z (ip), vehicle: methylcellulose (MC) 103 % of control

COC1OC2COC(c3ccccc3)OC2C(OS(=O)(=O)c2ccc(C)cc2)C1OS(=O)(=O)c1ccc(C)cc1 (stereo not given)
inactive: [2] 93 % of control | dose: 100.0 mg/kg/injection, schedule: Q04DX003 (ip), vehicle: saline with Tween-80 88 % of control | [5] 90 % of control | dose: 200.0 mg/kg/injection, schedule: Q04DX003 (ip), vehicle: saline with Tween-80 91 % of control | [8] 95 % of control

C/C(=N\[N+](C)(C)C)c1ccc(C)cc1
inactive: dose: 12.5 mg/kg/injection, schedule: Q01DX001 (ip), vehicle: saline 112 % of control | dose: 25.0 mg/kg/injection, schedule: Q01DX001 (ip), vehicle: saline 104 % of control | dose: 25.0 mg/kg/injection, schedule: Q04DX003 (ip), vehicle: saline 107 % of control | dose: 50.0 mg/kg/injection, schedule: Q01DX001 (ip), vehicle: saline 108 % of control | dose: 50.0 mg/kg/injection, schedule: Q04DX003 (ip), vehicle: saline 100 % of control | [1] 101 % of control | dose: 100.0 mg/kg/injection, schedule: Q04DX003 (ip), vehicle: saline 105 % of control

O=C1CC2OCC=C3C[N+]4(SS(=O)(=O)[O-])CCC56c7ccccc7N1C5C2C3CC64 (stereo not given)
inactive: dose: 0.15 mg/kg/injection, schedule: Q01DX009 (ip), vehicle: saline 93 % of control | dose: 0.31 mg/kg/injection, schedule: Q01DX009 (ip), vehicle: saline 95 % of control | dose: 0.31 mg/kg/injection, schedule: Q04DX003 (ip), vehicle: acetone 108 % of control | dose: 0.62 mg/kg/injection, schedule: Q01DX009 (ip), vehicle: saline 93 % of control | dose: 0.62 mg/kg/injection, schedule: Q04DX003 (ip), vehicle: acetone 108 % of control | dose: 0.92 mg/kg/injection, schedule: Q01DX009 (ip), vehicle: saline 92 % of control | dose: 1.25 mg/kg/injection, schedule: Q01DX001 (ip), vehicle: saline 98 % of control | dose: 1.25 mg/kg/injection, schedule: Q04DX003 (ip), vehicle: acetone 88 % of control | dose: 1.4 mg/kg/injection, schedule: Q01DX009 (ip), vehicle: saline 92 % of control

CCCCOC1=CC2C(=CCC3C2(C)C(=O)CC2(C)C(C(C)(O)C(=O)/C=C/C(C)(C)O)C(O)CC32C)C(C)(C)C1=O (stereo not given)
inactive: dose: 50.0 mg/kg/injection, schedule: Q04DX002 (ip), vehicle: saline with Tween-80 97 % of control | [3] 97 % of control | [6] 101 % of control

O=C(Nc1cc([N+](=O)[O-])ccc1Cl)Nc1ccccc1C(F)(F)F
inactive: [12] 104 % of control | [13] 94 % of control | [14] 93 % of control

Cc1ccccc1N1C(N)=NC(N)=NC1(C)C
inactive: dose: 6.25 mg/kg/injection, schedule: Q01DX009 (ip), vehicle: Klucel (hydroxypropylcellulose) (HPC) 89 % of control | [15] 91 % of control | [16] 100 % of control | dose: 50.0 mg/kg/injection, schedule: Q01DX009 (ip), vehicle: Klucel (hydroxypropylcellulose) (HPC) 96 % of control | dose: 75.0 mg/kg/injection, schedule: Q01DX001 (ip), vehicle: saline 103 % of control
